One block for each compound: values may come before it.
Tests used:
NFκB = experiment: NFκB-driven luciferase reporter assay in LPS-challenged RAW 264.7 macrophages; assay type: cell-based; settings: Mus musculus, RAW264.7; RAW 264.7, LPS 200 ng/mL; linked bioactive; read-out: IC50 in an NFkB assay
Method: RAW 264.7 cells transfected with an NFκB-driven luciferase reporter were plated in 96 well plates. Cells were treated with Vehicle (0.1% ethanol) or test compounds for 2 hours. As a positive control for inhibition of NFκB signaling, 6 wells were treated with […]. Cells were then challenged with 200 ng/mL LPS for 3 hours in the presence of test compounds. A subset of wells treated with vehicle remained unstimulated with LPS to determine the floor signal of the assay. NFκB driven luciferase activity was developed by addition of BriteLite luciferase kit (PERKIN ELMER®) and measured using a Victor V plate reader. NFκB activity (luciferase activity) for each treatment was normalized to Vehicle wells treated with LPS (% NFκB Response).

FAAH-1 = target: T1, FAAH-1 (Homo sapiens, UniProt O00519); experiment: Hydrolysis in homogenate of COS-7 cells overexpressed with FAAH-1; assay type: biochemical
T1 construct: expressed in transfected cells; host or cells: COS-7
T1 sequence (O00519 1-579): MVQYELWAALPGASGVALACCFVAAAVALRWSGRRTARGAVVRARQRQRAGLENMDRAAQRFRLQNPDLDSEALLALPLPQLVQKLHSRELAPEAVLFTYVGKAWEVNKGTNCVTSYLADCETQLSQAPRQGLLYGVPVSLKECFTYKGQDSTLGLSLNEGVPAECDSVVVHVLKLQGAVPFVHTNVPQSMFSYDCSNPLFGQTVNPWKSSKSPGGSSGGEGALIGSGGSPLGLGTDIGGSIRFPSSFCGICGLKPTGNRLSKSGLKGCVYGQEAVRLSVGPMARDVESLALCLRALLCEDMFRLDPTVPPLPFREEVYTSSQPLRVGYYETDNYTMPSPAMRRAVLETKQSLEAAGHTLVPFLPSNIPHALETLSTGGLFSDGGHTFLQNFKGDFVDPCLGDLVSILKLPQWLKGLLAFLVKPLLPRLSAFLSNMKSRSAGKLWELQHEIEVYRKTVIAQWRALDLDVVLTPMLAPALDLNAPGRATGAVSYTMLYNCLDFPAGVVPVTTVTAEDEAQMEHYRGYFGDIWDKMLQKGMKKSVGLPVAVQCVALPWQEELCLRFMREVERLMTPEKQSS
Method: (§1) Hydrolysis experiments using COS-7 cells overexpressed with either FAAH-1 or FAAH-2. […] The next day, cells were transfected, in duplicate, with 10 μg Vector control, flag-FAAH-1 or flag-FAAH-2 plasmids using Lipofectamine 2000 (Invitrogen) according to the manufacturer's protocol. 24 hours post transfection, cells were washed 1× in cold PBS, aspirated dry, and then scraped off the plate in the presence of 0.6 mL reaction buffer (50 mM HEPES, pH 9.0; 1 mM EDTA). Cells were then homogenated using a VWR VDI 12 Adaptable Homogenizer, on ice for 1 minute, and the sample was then clarified by centrifugation at 6,000 g for 5 minutes. The supernatant of this homogenated fraction was then used for FAAH hydrolysis assays. […] Gel densitometry was performed and the % FAAH extracted in each successive lysis conditions was determined according to standard procedures.
(§2) The following hydrolysis experiments were performed using COS-7 cells containing overexpressed FAAH-1 or FAAH-2. […] Briefly, the hydrolysis experiments were carried out in Eppendorf tubes using procedures similar to the one described above. […] At time=0, 1, and 3 h, the protein was precipitated with acetonitrile.

[1] = tested on: ApoB secretion in HepG2 cells; experiment: ApoB secretion in HepG2 cells (oleate stimulated, ELISA); assay type: cell-based; settings: Homo sapiens, linked bioactive
Method: HcpG2 cells (ATCC) were seeded at 10,000 cells per well in 96 well plates. After adhering overnight, growth media (10% FBS in DMEM) was removed and cells were serum starved for 24 hours in DMEM containing 0.1% fatty acid free bovine serum albumin (BSA, SIGMA®). Cells were then treated with the compounds. Niacin at 5 mM was used as a positive control. All treatments were performed in triplicate. Simultaneous with compound treatment, ApoB secretion was stimulated with the addition of […] complexed to fatty acid free BSA in a 5:1 molar ratio. Incubation with compounds and oleate was conducted for 24 hours. Media supernatants were removed and ApoB concentrations were measured using ELISA kits (MABTECH AB®). Percent inhibition of ApoB secretion was determined by normalizing data to vehicle treated wells. For a given compound, an IC50 (concentration at which 50% of ApoB secretion is inhibited) can also be determined by using a 4 parameter-fit inhibition curve model (GRAPH PAD PRISM®). In each experiment, cell viability was determined using the ATPlite 1-Step kit (PERKIN ELMER®), such that compound effects due to cytotoxicity could be monitored.

FAAH-2 = target: T2, FAAH-2 (Homo sapiens, UniProt Q6GMR7); experiment: Hydrolysis in homogenate of COS-7 cells overexpressed with FAAH-2; assay type: biochemical; settings: FIG. 9B; 5 μM inhibitor
T2 construct: expressed in transfected cells; host or cells: COS-7
T2 sequence (Q6GMR7 1-532): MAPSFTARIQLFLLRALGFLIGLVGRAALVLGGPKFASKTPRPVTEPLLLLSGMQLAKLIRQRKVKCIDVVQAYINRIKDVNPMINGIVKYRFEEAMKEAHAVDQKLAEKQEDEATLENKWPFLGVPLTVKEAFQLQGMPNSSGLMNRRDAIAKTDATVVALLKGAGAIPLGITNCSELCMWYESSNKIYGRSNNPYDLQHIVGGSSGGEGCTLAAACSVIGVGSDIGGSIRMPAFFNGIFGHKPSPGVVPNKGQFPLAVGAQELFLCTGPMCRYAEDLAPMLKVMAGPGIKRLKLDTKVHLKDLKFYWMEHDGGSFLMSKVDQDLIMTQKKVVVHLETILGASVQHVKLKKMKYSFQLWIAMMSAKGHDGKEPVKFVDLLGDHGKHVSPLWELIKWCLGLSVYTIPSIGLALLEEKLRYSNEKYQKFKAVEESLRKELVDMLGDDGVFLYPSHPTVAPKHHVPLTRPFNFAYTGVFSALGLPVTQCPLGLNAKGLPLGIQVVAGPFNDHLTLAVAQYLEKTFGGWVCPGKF
Method: as §1, §2

[2] = Rat liver lysate hydrolysis assay (FAAH and thiol reductase promoted cleavage); assay type: in vitro ADME
Method: The rat liver lysate hydrolysis experiment was performed in Eppendorf tubes, by adding the necessary amount of water for the assay first. A 10× buffer solution with final concentrations of HEPES and EDTA of 50 mM and 1 mM respectively was prepared from 500 mM HEPES and 10 mM EDTA in water. Rat liver lysate was removed from −80° C. storage, thawed and centrifuged at 4000 g for 5 min. A volume of the supernatant was transferred to the Eppendorf tube yielding a final concentration in the assay of 3 mg/mL rat liver lysate. The tube was gently inverted to mix the components. The reactions are then place in a 37° C. incubator for 20 min allowing the reaction mixture to reach 37° C. before the reaction was initiated.
To initiate the hydrolysis reaction, the samples were removed from the incubator and the compounds of the invention were added, as a DMSO solution, prepared in a manner to allow for <1% final DMSO concentration and 5 μM final compound concentration. […]
This rat liver lysate hydrolysis assay was used to assess the hydrolysis of bis-fatty acid linked bioactives into individual components. As an illustrative example, the bis-fatty acid cystamine linked bioactive VI-7 was assessed in this rat liver lysate assay. […] The amount of cysteamine that was formed could be quantitated by LC-MS/MS by carrying out an initial derivatization with Ellman's reagent. […] 50 μl of the tissue lysate reaction mixture was transferred to a 1.5 mL eppendorf tube and derivatization of cysteamine was performed with 50 μl 10 mM Ellman's reagent (5,5′ dithio-bis(2-nitrobenzoic acid). Samples were incubated at room temperature for 10 minutes, vortex for 1 minute followed by protein precipitation by addition of 300 μl of acetonitrile containing IS and 0.2% butylated hydroxyanisole (BHA). Supernatant was transferred to a clean LC vial and 10 μl of the sample was injected on LC-MS/MS for the measurement of cysteamine. The concentration of cysteamine was measured by LC-MS/MS. […]

Structure (SMILES): CC/C=C\C/C=C\C/C=C\C/C=C\C/C=C\CCCC(=O)NCCNC(=O)c1cccnc1 [III-1, N-(2-(5Z,8Z,11Z,14Z,17Z)-icosa-5,8,11,14,17-pentaenamidoethyl)nicotinamide]
IC50 [1]: 50 µM

Structure (SMILES): O=C(Nc1cccnc1)N1CCC(Cc2cccc(Oc3ccc(C(F)(F)F)cn3)c2)CC1 [PF-3845]
effect of inhibitor on hydrolysis of compound I-1, FAAH-2 (FAAH-2): not as effective as URB597
effect of FAAH inhibitor on formation of cysteamine from compound VI-7 in rat liver lysate ([2]; FIG. 7B, presence of inhibitor): essentially no increase in cysteamine
effect of inhibitor on rate of hydrolysis of compound I-1, FAAH-1 (FAAH-1; FIG. 9A, 5 μM inhibitor): significantly reduced
effect of inhibitor on rate of formation of DHA from compound I-1, FAAH-1 (FAAH-1; FIG. 9C, 5 μM inhibitor): significantly inhibited

Structure (SMILES): CC/C=C\C/C=C\C/C=C\C/C=C\C/C=C\C/C=C\CCC(=O)N1CCN(C(=O)CCC/C=C\C/C=C\C/C=C\C/C=C\C/C=C\CC)CC1 [VI-1, (4Z,7Z,10Z,13Z,16Z,19Z)-1-[4-((5Z,8Z,11Z,14Z,17Z)-icosa-5,8,11,14,17-pentaenoyl)-piperazin-1-yl]-docosa-4,7,10,13,16,19-hexaen-1-one]
IC50 [1]: 10 µM

Structure (SMILES): CC/C=C\C/C=C\C/C=C\C/C=C\C/C=C\C/C=C\CCC(=O)NCCNC(=O)CCC/C=C\C/C=C\C/C=C\C/C=C\C/C=C\CC [VI-5, (4Z,7Z,10Z,13Z,16Z,19Z)-docosa-4,7,10,13,16,19-hexaenoic acid [2-((5Z,8Z,11Z,14Z,17Z)-icosa-5,8,11,14,17-pentaenoylamino)-ethyl]-amide]
IC50 (NFκB): 63 µM

Structure (SMILES): CC/C=C\C/C=C\C/C=C\C/C=C\C/C=C\C/C=C\CCC(=O)NCCNC(=O)CC/C=C\C/C=C\C/C=C\C/C=C\C/C=C\C/C=C\CC [VI-6, (4Z,7Z,10Z,13Z,16Z,19Z)-docosa-4,7,10,13,16,19-hexaenoic acid [2-((4Z,7Z,10Z,13Z,16Z,19Z)-docosa-4,7,10,13,16,19-hexaenoylamino)-ethyl]-amide]
IC50 (NFκB): 68 µM

Structure (SMILES): CC/C=C\C/C=C\C/C=C\C/C=C\C/C=C\C/C=C\CCC(=O)NCCSSCCNC(=O)CCC/C=C\C/C=C\C/C=C\C/C=C\C/C=C\CC [VI-7, (4Z,7Z,10Z,13Z,16Z,19Z)-docosa-4,7,10,13,16,19-hexaenoic acid {2-[2-((5Z,8Z,11Z,14Z,17Z)-icosa-5,8,11,14,17-pentaenoylamino)-ethyldisulfanyl]-ethyl}-amide]
hydrolysis in rat liver lysate ([2]; FIG. 7A, 5 μM compound, 3 mg/mL rat liver lysate, 37° C.): time-dependent hydrolysis
formation of cysteamine in rat liver lysate ([2]; FIG. 7B, absence of the FAAH inhibitor PF-3845): time dependent formation of cysteamine

The next lines start with the values.

IC50 (NFκB): 30 to 35 µM
hydrolysis (disappearance of compound) in COS-7 cells overexpressed with FAAH-1 (FAAH-1; FIG. 9A, 5 μM, absence of any inhibitor, 0-3 h): significant hydrolysis
appearance of DHA from compound, FAAH-1 (FAAH-1; FIG. 9C, 5 μM, no inhibitor): time dependent formation of DHA
Structure (SMILES): CC/C=C\C/C=C\C/C=C\C/C=C\C/C=C\C/C=C\CCC(=O)NCCNC(=O)c1ccccc1O [Compound I-1, N-(2-(4Z,7Z,10Z,13Z,16Z,19Z)-docosa-4,7,10,13,16,19-hexaenamidoethyl)-2-hydroxybenzamide]

IC50 [1]: 50 µM
Structure (SMILES): CC/C=C\C/C=C\C/C=C\C/C=C\C/C=C\C/C=C\CCC(=O)NCCNC(=O)c1cccnc1 [III-2, N-(2-(4Z,7Z,10Z,13Z,16Z,19Z)-docosa-4,7,10,13,16,19-hexaenamidoethyl)nicotinamide]

IC50 (NFκB): 16 µM
Structure (SMILES): CC/C=C\C/C=C\C/C=C\C/C=C\C/C=C\C/C=C\CCC(=O)NCCNC(=O)/C=C/C(=O)OC [IV-1, (E)-methyl 4-(2-(4Z,7Z,10Z,13Z,16Z,19Z)-docosa-4,7,10,13,16,19-hexaenamidoethylamino)-4-oxobut-2-enoate]

Source: patent US20140315786A1, “USE OF INTRACELLULAR ENZYMES FOR THE RELEASE OF COVALENTLY LINKED BIOACTIVES” (Catabasis Pharmaceuticals, Inc., priority 2011, published 2014)
